# Results: US20180042874A1, “METHOD FOR TREATING OSTEOPOROSIS” (China Medical University, priority 2016, published 2018)
# Key:
# [1] = system: osteoclast differentiation induced by receptor activator of nuclear factor κB ligand in RAW 264.7 cells; assay: Osteoclast differentiation test (tartrate-resistant acid phosphatase staining); assay type: cell-based, mouse
# Excerpt: The present invention used monocyte/macrophage cell line RAW 264.7 from mouse as an experimental model of the osteoclast differentiation system. RAW 264.7 cells differentiated into osteoclasts in an environment containing receptor activator of nuclear factor κB ligand. RAW 264.7 was obtained from a tumor induced by Abelson murine leukemia virus and purchased from the American Type Culture Collection (ATCC; Rockville, Md.). To culture osteoclasts, RAW 264.7 cells were used, cultured in a 24-well plate, the number of cells in each well was 1×10^4 cell/ml and cultured in a medium containing 100 ng/ml of receptor activator of nuclear factor κB ligand or co-treated with different concentrations of the compound of formula I.
# In order to simulate physiological functions of the bone, we simulated the in vivo environment and some hormones essential to differentiation were added. The hormone environment suitable for […] cells was simulated for osteoclast differentiation. […] Markers for osteoclast differentiation were evaluated by staining with tartrate-resistant acid phosphatase. […]
# Osteoclast formation was detected by quantifying the staining positive rate of tartrate-resistant acid phosphatase (387-A, Sigma-Aldrich, St. Louis, Mo.). […]
# hepatitis B virus (HBV) = details: human hepatocellular carcinoma cells; cited from earlier work
compound,measurement,setting,value
"CNC(=O)N[C@]1(C)CCC[C@@]2(C)C3CC[C@@]4(C)C[C@]3(CCC21)CC4=O (single isomer, unassigned; ent-16) [compound of formula I, ent-16-oxobeyeran-19-N-methylureido]",osteoclast differentiation over time (TRAP-positive multinucleated cells),"[1]; 10 μg/ml co-treated with 100 ng/ml RANKL, 2, 4, 6 days",significant and inhibitory effect
same,level of osteoclast differentiation (TRAP-positive multinucleated cells),"[1]; 10 μg/ml co-treated with 100 ng/ml RANKL, 6 days",decrease in the level of osteoclast differentiation
same,secretion of hepatitis B virus antigen (HBeAg),hepatitis B virus (HBV),effectively suppress
same,secretion of hepatitis B virus surface antigen (HBsAg),hepatitis B virus (HBV),effectively suppress
